Data as given in EP4667476A1, “NOVEL MITOCHONDRIA-TARGETING COMPOUNDS” (THE CATHOLIC UNIVERSITY OF KOREA INDUSTRY-ACADEMIC …, priority 2023, dated 2024).

Tested on: PD-L1
Assay: PD-L1 expression in gastric cancer cells by flow cytometer
Format: cell-based
Details: AGS; metformin at a concentration 50 times higher than that of JH-001 (FIG. 8)
Procedure: After treating an AGS cell line, a gastric cancer cell line, with JH-001 for each concentration, the expression of PD-L1, an immunocompromised marker, was confirmed using a flow cytometer. […] In addition, metformin, known as a mitochondria-targeting drug, was treated at a concentration 50 times higher than that of JH-001 and the expression level of PD-L1 was confirmed. As a result, it was confirmed that JH-001 according to the present disclosure inhibited PD-L1 expression about 2 times higher than metformin treatment, even though JH-001 was treated at a much lower concentration (FIG. 8).

For `CN(CCCNC(=O)CCCCC[P+](c1ccccc1)(c1ccccc1)c1ccccc1)C(=N)NC(=N)N` [JH-001, (6-((3-(3-carbamimidoyl-1-methylguanidino)propyl)amino)-6-oxohexyl)triphenylphosphonium], the “inhibition of PD-L1 expression relative to metformin treatment” value was “about 2 times”.
